Laboratory results from the kinase profiling compilation of Christmann-Franck et al. (2016).

Tests used:
Assay in all cases: radiometric filter-binding kinase assay, Kinase HotSpot
Settings in all cases: compound 0.5 µM; ATP 10 µM
AXL (human) = AXL (human) (UniProt P30530)
CAMK2D (human) = CAMK2D (human) (UniProt Q13557)
CDK2 CCNE1 (human) = CDK2 CCNE1 (human) (UniProt P24941+P24864)
CDK5 CDK5R1 p35 (human) = CDK5 CDK5R1 p35 (human) (UniProt Q00535+Q15078)
CLK2 (human) = CLK2 (human) (UniProt P49760)
CLK4 (human) = CLK4 (human) (UniProt Q9HAZ1)
DAPK2 (human) = DAPK2 (human) (UniProt Q9UIK4)
DCLK2 (human) = DCLK2 (human) (UniProt Q8N568)
EGFR (human) = EGFR (human) (UniProt P00533)
EPHA2 (human) = EPHA2 (human) (UniProt P29317)
EPHA3 (human) = EPHA3 (human) (UniProt P29320)
EPHB1 (human) = EPHB1 (human) (UniProt P54762)
Chain of EPHB1 (human) (P54762 whole entry, looked up): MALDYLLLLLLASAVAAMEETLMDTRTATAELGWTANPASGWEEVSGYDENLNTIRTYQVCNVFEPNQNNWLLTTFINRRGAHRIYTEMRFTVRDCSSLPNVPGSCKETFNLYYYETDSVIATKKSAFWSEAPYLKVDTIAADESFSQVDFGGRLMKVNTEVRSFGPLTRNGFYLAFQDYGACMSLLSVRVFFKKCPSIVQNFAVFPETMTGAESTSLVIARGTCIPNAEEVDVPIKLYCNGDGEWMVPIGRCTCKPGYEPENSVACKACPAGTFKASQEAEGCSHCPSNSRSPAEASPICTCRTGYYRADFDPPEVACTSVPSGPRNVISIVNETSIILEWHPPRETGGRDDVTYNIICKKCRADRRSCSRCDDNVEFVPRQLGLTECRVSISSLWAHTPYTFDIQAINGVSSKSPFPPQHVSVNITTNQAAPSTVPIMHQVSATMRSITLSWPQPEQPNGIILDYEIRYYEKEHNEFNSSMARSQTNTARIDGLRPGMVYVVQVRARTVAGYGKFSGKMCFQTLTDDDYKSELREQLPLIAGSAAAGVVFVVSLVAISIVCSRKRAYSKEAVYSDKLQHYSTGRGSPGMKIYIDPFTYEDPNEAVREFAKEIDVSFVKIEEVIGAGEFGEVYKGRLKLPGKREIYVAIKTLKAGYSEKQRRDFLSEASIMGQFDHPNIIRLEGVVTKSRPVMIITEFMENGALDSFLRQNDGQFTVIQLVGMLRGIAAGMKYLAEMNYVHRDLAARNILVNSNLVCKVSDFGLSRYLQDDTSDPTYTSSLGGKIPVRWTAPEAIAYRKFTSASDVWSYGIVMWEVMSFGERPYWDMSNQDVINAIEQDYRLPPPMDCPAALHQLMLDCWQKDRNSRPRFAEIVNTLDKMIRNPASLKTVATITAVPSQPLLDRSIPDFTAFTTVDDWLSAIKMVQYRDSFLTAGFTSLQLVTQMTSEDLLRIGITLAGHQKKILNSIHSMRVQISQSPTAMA

FER (human) = FER (human) (UniProt P16591)
GRK4 (human) = GRK4 (human) (UniProt P32298)
GRK6 (human) = GRK6 (human) (UniProt P43250)
GSK3B (human) = GSK3B (human) (UniProt P49841)
HIPK1 (human) = HIPK1 (human) (UniProt Q86Z02)
HIPK4 (human) = HIPK4 (human) (UniProt Q8NE63)
Chain of HIPK4 (human) (Q8NE63 whole entry, looked up): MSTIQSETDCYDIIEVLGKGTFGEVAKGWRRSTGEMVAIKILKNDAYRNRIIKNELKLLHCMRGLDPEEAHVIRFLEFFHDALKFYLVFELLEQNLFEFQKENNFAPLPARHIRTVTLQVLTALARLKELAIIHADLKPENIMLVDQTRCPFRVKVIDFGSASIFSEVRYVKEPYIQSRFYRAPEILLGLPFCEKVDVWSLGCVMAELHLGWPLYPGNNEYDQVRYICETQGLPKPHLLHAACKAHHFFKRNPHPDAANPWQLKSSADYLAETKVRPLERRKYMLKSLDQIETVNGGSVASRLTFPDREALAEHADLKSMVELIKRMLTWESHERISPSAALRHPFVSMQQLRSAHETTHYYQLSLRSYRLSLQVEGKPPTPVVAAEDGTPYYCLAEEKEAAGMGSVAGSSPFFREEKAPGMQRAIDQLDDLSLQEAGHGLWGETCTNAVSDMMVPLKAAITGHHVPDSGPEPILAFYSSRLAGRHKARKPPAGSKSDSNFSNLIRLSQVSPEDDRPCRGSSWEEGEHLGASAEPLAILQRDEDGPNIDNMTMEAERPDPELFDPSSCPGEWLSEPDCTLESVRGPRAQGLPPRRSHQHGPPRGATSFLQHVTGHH

LCK (human) = LCK (human) (UniProt P06239)
LIMK1 (human) = LIMK1 (human) (UniProt P53667)
MAP4K2 (human) = MAP4K2 (human) (UniProt Q12851)
MAPKAPK2 (human) = MAPKAPK2 (human) (UniProt P49137)
Chain of MAPKAPK2 (human) (P49137 whole entry, looked up): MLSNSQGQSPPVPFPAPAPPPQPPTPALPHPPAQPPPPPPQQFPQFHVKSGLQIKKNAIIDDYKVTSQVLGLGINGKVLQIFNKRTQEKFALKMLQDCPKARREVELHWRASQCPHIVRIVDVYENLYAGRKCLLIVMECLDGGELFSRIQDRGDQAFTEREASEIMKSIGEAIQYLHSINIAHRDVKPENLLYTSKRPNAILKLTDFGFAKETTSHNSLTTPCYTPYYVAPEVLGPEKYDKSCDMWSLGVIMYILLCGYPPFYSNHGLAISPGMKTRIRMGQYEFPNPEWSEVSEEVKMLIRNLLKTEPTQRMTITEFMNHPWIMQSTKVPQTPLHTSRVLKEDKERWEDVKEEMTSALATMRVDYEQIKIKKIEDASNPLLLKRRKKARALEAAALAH

MAPKAPK3 (human) = MAPKAPK3 (human) (UniProt Q16644)
MAPKAPK5 (human) = MAPKAPK5 (human) (UniProt Q8IW41)
MARK2 (human) = MARK2 (human) (UniProt Q7KZI7)
MARK4 (human) = MARK4 (human) (UniProt Q96L34)
MKNK2 (human) = MKNK2 (human) (UniProt Q9HBH9)
MUSK (human) = MUSK (human) (UniProt O15146)
Chain of MUSK (human) (O15146 whole entry, looked up): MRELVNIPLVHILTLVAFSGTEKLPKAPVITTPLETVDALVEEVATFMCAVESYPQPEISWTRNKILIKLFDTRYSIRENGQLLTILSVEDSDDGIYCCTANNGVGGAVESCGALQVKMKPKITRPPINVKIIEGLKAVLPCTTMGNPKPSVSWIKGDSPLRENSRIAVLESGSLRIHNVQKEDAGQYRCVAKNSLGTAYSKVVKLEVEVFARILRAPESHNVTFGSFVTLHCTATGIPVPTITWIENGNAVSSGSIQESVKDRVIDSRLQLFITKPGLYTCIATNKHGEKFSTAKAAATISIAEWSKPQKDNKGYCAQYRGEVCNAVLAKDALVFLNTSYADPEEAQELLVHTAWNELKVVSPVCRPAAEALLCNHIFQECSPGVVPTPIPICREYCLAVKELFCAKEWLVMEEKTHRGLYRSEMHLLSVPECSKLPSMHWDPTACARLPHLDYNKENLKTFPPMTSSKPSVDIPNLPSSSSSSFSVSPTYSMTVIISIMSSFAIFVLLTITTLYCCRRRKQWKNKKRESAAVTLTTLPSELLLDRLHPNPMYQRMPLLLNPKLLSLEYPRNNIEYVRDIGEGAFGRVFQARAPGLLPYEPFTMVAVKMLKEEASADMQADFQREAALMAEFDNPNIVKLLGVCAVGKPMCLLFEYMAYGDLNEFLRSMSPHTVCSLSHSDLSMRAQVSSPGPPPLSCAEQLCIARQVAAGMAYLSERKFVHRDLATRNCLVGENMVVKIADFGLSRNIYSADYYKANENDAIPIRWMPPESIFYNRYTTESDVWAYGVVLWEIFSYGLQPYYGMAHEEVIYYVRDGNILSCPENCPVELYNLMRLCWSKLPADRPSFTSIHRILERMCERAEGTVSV

NLK (human) = NLK (human) (UniProt Q9UBE8)
PAK1 (human) = PAK1 (human) (UniProt Q13153)
PAK6 (human) = PAK6 (human) (UniProt Q9NQU5)
PDPK1 (human) = PDPK1 (human) (UniProt O15530)
PRKCB1 (human) = PRKCB1 (human) (UniProt P05771)
PRKCB2 (human) = PRKCB2 (human) (UniProt P05771)
RPS6KA3 KD1 KD2 (human) = RPS6KA3 KD1 KD2 (human) (UniProt P51812)
SRMS (human) = SRMS (human) (UniProt Q9H3Y6)
STK39 (human) = STK39 (human) (UniProt Q9UEW8)
TAOK3 (human) = TAOK3 (human) (UniProt Q9H2K8)
TSSK2 (human) = TSSK2 (human) (UniProt Q96PF2)
Chain of TSSK2 (human) (Q96PF2 whole entry, looked up): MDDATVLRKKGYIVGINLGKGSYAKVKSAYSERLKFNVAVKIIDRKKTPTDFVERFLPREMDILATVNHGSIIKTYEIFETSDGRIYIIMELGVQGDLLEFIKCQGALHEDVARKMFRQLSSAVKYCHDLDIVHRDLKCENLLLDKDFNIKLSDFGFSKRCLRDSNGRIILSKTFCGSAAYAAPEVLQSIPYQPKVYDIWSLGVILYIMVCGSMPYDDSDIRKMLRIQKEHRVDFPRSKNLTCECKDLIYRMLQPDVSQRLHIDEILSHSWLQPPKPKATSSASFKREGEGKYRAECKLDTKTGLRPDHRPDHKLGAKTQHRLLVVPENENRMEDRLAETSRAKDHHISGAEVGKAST

TTK (human) = TTK (human) (UniProt P33981)
Chain of TTK (human) (P33981 whole entry, looked up): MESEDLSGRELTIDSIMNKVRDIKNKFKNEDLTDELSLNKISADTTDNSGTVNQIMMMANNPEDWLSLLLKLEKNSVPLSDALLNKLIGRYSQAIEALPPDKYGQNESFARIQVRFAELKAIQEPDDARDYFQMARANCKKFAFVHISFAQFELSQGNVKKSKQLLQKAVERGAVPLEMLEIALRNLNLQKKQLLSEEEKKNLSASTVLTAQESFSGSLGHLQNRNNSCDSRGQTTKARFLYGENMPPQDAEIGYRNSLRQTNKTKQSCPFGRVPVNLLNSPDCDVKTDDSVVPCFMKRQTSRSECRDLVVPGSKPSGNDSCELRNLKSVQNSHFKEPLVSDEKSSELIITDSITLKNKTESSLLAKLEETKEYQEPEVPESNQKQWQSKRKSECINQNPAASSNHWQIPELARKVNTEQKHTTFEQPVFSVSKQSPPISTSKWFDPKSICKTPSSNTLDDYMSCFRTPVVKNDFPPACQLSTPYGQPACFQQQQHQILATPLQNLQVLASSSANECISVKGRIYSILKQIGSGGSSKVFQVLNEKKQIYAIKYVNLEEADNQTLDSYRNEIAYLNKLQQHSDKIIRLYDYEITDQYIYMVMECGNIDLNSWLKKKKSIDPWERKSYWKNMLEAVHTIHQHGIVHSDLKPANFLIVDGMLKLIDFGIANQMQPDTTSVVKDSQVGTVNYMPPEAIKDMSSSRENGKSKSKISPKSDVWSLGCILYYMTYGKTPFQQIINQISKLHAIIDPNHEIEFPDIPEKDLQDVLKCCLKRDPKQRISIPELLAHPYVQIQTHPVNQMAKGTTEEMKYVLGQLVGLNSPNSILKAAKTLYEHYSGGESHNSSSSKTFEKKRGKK

VRK1 (human) = VRK1 (human) (UniProt Q99986)
MAP4K4 (human) = MAP4K4 (human) (UniProt O95819)

Chain of AXL (human) (P30530 whole entry, looked up): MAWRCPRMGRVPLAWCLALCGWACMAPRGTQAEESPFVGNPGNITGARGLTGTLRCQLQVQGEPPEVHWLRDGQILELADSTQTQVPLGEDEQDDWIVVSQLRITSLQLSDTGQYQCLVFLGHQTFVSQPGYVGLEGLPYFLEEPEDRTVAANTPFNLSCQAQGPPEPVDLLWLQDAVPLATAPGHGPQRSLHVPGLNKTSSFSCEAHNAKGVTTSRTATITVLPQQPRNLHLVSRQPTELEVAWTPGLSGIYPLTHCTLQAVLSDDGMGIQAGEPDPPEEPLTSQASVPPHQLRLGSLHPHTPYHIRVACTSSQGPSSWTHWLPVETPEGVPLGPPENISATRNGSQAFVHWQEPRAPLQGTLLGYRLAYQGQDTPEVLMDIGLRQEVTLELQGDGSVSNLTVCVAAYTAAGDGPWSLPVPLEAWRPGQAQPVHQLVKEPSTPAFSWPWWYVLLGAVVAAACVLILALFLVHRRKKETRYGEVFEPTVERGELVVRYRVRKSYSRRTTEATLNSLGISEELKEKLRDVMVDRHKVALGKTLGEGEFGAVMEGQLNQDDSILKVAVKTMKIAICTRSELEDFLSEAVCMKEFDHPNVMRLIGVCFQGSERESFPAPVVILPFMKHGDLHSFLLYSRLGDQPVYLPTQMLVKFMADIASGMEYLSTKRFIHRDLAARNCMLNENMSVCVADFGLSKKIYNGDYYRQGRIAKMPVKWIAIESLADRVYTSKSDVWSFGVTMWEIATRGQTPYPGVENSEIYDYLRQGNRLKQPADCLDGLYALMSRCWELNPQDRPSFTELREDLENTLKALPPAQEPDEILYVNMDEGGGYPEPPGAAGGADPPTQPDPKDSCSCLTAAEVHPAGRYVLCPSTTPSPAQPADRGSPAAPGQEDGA

N#C/C(=C\c1ccc(O)c(O)c1)C(=O)NCc1ccccc1
residual activity (AXL (human)): 95.1%
residual activity (CAMK2D (human)): 104%
residual activity (CDK2 CCNE1 (human)): 96.4%
residual activity (CDK5 CDK5R1 p35 (human)): 99.8%
residual activity (CLK2 (human)): 110%
residual activity (CLK4 (human)): 94%
residual activity (DAPK2 (human)): 98.5%
residual activity (DCLK2 (human)): 101%
residual activity (EGFR (human)): 72.4%
residual activity (EPHA2 (human)): 105%
residual activity (EPHA3 (human)): 97.2%
residual activity (EPHB1 (human)): 87.4%
residual activity (FER (human)): 86.2%
residual activity (GRK4 (human)): 101%
residual activity (GRK6 (human)): 101%
residual activity (GSK3B (human)): 106%
residual activity (HIPK1 (human)): 101%
residual activity (HIPK4 (human)): 106%
residual activity (LCK (human)): 95.7%
residual activity (LIMK1 (human)): 97%
residual activity (MAP4K2 (human)): 103%
residual activity (MAPKAPK2 (human)): 101%
residual activity (MAPKAPK3 (human)): 102%
residual activity (MAPKAPK5 (human)): 94.2%
residual activity (MARK2 (human)): 88.2%
residual activity (MARK4 (human)): 104%
residual activity (MKNK2 (human)): 87.9%
residual activity (MUSK (human)): 97.9%
residual activity (NLK (human)): 110%
residual activity (PAK1 (human)): 97.7%
residual activity (PAK6 (human)): 99.4%
residual activity (PDPK1 (human)): 74%
residual activity (PRKCB1 (human)): 91%
residual activity (PRKCB2 (human)): 99.8%
residual activity (RPS6KA3 KD1 KD2 (human)): 100%
residual activity (SRMS (human)): 104%
residual activity (STK39 (human)): 99.8%
residual activity (TAOK3 (human)): 103%
residual activity (TSSK2 (human)): 90%
residual activity (TTK (human)): 103%
residual activity (VRK1 (human)): 97%

CS(=O)(=O)CCNCc1ccc(-c2ccc3ncnc(Nc4ccc(OCc5cccc(F)c5)c(Cl)c4)c3c2)o1
residual activity (AXL (human)): 96.2%
residual activity (CAMK2D (human)): 92.5%
residual activity (CDK2 CCNE1 (human)): 98.8%
residual activity (CDK5 CDK5R1 p35 (human)): 103%
residual activity (CLK2 (human)): 95.1%
residual activity (CLK4 (human)): 115%
residual activity (DAPK2 (human)): 103%
residual activity (DCLK2 (human)): 101%
residual activity (EPHA2 (human)): 99%
residual activity (EPHA3 (human)): 98.2%
residual activity (EPHB1 (human)): 104%
residual activity (FER (human)): 94.6%
residual activity (GRK4 (human)): 90.3%
residual activity (GRK6 (human)): 101%
residual activity (GSK3B (human)): 103%
residual activity (HIPK1 (human)): 97.1%
residual activity (HIPK4 (human)): 108%
residual activity (LCK (human)): 94.2%
residual activity (LIMK1 (human)): 95.2%
residual activity (MAP4K2 (human)): 104%
residual activity (MAP4K4 (human)): 111%
residual activity (MAPKAPK2 (human)): 94.7%
residual activity (MAPKAPK3 (human)): 103%
residual activity (MAPKAPK5 (human)): 92.8%
residual activity (MARK2 (human)): 137%
residual activity (MARK4 (human)): 104%
residual activity (MKNK2 (human)): 97.3%
residual activity (MUSK (human)): 96.5%
residual activity (NLK (human)): 108%
residual activity (PAK1 (human)): 110%
residual activity (PAK6 (human)): 106%
residual activity (PDPK1 (human)): 86.4%
residual activity (PRKCB1 (human)): 93.5%
residual activity (PRKCB2 (human)): 99.8%
residual activity (RPS6KA3 KD1 KD2 (human)): 105%
residual activity (SRMS (human)): 97.9%
residual activity (STK39 (human)): 100%
residual activity (TAOK3 (human)): 101%
residual activity (TSSK2 (human)): 89.9%
residual activity (TTK (human)): 102%
residual activity (VRK1 (human)): 101%

C[C@@H]1CCN(C(=O)CC#N)C[C@@H]1N(C)c1ncnc2[nH]ccc12
residual activity (AXL (human)): 97.7%
residual activity (CAMK2D (human)): 98.2%
residual activity (CDK2 CCNE1 (human)): 90.7%
residual activity (CDK5 CDK5R1 p35 (human)): 99.5%
residual activity (CLK2 (human)): 85.8%
residual activity (CLK4 (human)): 111%
residual activity (DAPK2 (human)): 89.5%
residual activity (DCLK2 (human)): 96.6%
residual activity (EPHA2 (human)): 95.8%
residual activity (EPHA3 (human)): 94.1%
residual activity (EPHB1 (human)): 106%
residual activity (FER (human)): 104%
residual activity (GRK4 (human)): 93.5%
residual activity (GRK6 (human)): 101%
residual activity (GSK3B (human)): 99.6%
residual activity (HIPK1 (human)): 98.1%
residual activity (HIPK4 (human)): 96.2%
residual activity (LCK (human)): 80.2%
residual activity (LIMK1 (human)): 82%
residual activity (MAP4K2 (human)): 102%
residual activity (MAP4K4 (human)): 101%
residual activity (MAPKAPK2 (human)): 96.6%
residual activity (MAPKAPK3 (human)): 100%
residual activity (MAPKAPK5 (human)): 97.3%
residual activity (MARK2 (human)): 91.8%
residual activity (MARK4 (human)): 81.7%
residual activity (MKNK2 (human)): 97.4%
residual activity (MUSK (human)): 103%
residual activity (NLK (human)): 110%
residual activity (PAK1 (human)): 108%
residual activity (PAK6 (human)): 102%
residual activity (PDPK1 (human)): 94.1%
residual activity (PRKCB1 (human)): 101%
residual activity (PRKCB2 (human)): 88.1%
residual activity (RPS6KA3 KD1 KD2 (human)): 97%
residual activity (SRMS (human)): 95.8%
residual activity (STK39 (human)): 95.1%
residual activity (TAOK3 (human)): 94.9%
residual activity (TSSK2 (human)): 87.9%
residual activity (TTK (human)): 108%
residual activity (VRK1 (human)): 100%
